According to ChEMBL document CHEMBL5653631, “A Potent and Selective ULK1 Inhibitor Suppresses Autophagy and Sensitizes Cancer Cells to Nutrient Stress” (iScience, 2018):

Columns and labels:
[1] = target: Protein kinase C eta type (Homo sapiens) (UniProt P24723); assay: Inhibition of human recombinant PKCH at 40 nM in presence of ATP by radiometric assay relative to control
[2] = target: Mitogen-activated protein kinase kinase kinase 20 (Homo sapiens) (UniProt Q9NYL2); assay: Inhibition of human recombinant ZAK at 40 nM in presence of ATP by radiometric assay relative to control
Chain of Mitogen-activated protein kinase kinase kinase 20 (Homo sapiens) (Q9NYL2 2-800 limits assumed): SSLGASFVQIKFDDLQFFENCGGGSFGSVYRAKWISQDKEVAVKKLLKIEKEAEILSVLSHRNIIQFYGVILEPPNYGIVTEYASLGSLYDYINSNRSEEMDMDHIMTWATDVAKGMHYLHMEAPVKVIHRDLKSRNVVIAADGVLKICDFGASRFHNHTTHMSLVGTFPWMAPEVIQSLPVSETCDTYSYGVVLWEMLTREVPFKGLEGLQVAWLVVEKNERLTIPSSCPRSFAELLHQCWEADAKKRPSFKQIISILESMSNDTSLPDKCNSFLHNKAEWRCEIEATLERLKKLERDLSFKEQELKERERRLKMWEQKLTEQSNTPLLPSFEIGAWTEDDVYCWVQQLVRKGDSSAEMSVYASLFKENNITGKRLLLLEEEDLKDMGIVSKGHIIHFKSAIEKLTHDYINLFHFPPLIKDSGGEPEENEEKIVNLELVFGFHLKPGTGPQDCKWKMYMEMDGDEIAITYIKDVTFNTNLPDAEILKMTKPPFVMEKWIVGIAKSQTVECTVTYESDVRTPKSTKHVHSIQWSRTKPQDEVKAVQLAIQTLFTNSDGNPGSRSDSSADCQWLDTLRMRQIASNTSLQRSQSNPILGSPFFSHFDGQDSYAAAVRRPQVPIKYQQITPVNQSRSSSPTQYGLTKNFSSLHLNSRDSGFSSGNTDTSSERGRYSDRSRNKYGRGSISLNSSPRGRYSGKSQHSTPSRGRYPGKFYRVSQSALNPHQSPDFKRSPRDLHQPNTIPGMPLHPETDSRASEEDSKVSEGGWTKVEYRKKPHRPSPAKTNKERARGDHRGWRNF

[3] = target: Fibroblast growth factor receptor 4 (Homo sapiens) (UniProt P22455); assay: Inhibition of human recombinant FGFR4 at 15 nM related to control ULK1
Chain of Fibroblast growth factor receptor 4 (Homo sapiens) (P22455 22-802 limits assumed): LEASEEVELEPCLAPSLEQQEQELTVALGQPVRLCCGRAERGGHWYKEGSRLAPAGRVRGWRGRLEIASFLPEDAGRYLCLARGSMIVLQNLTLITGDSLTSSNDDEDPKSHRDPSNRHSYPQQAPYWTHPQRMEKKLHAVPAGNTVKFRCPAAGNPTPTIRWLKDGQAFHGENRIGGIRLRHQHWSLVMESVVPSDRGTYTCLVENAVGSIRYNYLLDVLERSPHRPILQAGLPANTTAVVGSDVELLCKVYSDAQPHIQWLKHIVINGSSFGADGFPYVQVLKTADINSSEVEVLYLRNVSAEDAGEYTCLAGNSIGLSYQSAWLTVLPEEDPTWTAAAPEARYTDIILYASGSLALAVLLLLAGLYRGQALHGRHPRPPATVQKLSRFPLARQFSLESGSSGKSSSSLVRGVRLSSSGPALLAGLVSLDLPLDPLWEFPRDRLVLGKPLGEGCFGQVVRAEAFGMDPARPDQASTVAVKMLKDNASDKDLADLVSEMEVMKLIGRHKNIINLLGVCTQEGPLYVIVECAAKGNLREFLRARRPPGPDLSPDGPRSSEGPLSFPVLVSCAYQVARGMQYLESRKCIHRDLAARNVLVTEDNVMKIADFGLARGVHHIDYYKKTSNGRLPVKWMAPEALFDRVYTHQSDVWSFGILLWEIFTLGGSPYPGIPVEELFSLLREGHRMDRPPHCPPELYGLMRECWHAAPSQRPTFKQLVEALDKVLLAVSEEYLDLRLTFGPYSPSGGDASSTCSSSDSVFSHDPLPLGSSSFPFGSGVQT

[4] = target: T1, Inhibitor of nuclear factor kappa-B kinase subunit beta (Homo sapiens) (UniProt O14920); assay: Inhibition of human recombinant IKKb at 15 nM related to control ULK1
T1 sequence (whole entry): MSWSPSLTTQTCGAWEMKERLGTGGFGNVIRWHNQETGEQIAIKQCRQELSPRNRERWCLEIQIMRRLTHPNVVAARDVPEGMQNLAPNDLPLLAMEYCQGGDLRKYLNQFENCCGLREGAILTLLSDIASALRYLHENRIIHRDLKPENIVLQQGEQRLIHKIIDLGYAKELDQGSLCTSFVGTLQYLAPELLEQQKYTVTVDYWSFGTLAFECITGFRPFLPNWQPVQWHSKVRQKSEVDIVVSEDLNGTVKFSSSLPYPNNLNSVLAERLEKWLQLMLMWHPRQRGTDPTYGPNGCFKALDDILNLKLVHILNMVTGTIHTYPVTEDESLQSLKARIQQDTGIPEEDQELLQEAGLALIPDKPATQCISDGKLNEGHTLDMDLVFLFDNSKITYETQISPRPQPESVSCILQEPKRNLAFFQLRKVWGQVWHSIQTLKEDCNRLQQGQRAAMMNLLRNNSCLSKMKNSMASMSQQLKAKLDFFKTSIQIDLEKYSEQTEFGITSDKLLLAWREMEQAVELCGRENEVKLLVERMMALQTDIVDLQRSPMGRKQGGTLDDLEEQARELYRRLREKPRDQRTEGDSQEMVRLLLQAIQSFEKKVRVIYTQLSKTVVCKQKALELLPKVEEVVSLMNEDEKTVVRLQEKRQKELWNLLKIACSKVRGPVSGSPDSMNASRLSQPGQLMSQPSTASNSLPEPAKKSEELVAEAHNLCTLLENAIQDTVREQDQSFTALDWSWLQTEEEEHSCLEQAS

[5] = target: Mitogen-activated protein kinase 10 (Homo sapiens) (UniProt P53779); assay: Inhibition of human recombinant JNK3 at 15 nM related to control ULK1
Chain of Mitogen-activated protein kinase 10 (Homo sapiens) (P53779 whole entry): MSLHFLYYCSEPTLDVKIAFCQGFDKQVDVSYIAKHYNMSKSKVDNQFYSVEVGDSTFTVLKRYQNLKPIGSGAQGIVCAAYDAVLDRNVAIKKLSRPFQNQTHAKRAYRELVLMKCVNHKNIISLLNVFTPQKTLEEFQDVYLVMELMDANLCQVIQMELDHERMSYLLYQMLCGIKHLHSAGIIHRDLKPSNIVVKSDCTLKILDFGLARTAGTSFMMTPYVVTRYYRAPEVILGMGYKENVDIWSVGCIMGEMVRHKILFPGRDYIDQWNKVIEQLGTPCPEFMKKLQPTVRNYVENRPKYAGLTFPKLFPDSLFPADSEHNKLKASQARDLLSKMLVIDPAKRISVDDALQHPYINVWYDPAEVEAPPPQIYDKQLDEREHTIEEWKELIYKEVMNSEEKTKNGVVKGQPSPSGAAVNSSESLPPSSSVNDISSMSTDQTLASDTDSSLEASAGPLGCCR

[6] = target: Serine/threonine-protein kinase PLK3 (Homo sapiens) (UniProt Q9H4B4); assay: Inhibition of human recombinant PLK3 at 15 nM related to control ULK1
[7] = target: Cyclin-dependent kinase 7 (Homo sapiens) (UniProt P50613); assay: Inhibition of human recombinant CDK7 at 500 nM in presence of ATP by radiometric assay relative to control
Chain of Cyclin-dependent kinase 7 (Homo sapiens) (P50613 whole entry): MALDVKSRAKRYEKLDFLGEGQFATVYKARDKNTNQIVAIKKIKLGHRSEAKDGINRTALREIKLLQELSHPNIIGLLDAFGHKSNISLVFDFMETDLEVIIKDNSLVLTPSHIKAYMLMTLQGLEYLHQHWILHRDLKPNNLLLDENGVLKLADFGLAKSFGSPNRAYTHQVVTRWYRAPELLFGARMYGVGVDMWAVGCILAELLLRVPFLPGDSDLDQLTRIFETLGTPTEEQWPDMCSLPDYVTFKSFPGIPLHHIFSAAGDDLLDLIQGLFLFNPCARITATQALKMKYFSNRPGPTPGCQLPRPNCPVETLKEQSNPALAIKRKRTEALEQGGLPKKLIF

[8] = target: Tyrosine-protein kinase JAK1 (Homo sapiens) (UniProt P23458); assay: Inhibition of human recombinant JAK1 at 500 nM in presence of ATP by radiometric assay relative to control
[9] = target: T2, Mitogen-activated protein kinase kinase kinase 5 (Homo sapiens) (UniProt Q99683); assay: Inhibition of human recombinant MAP3K5 at 500 nM in presence of ATP by radiometric assay relative to control
T2 sequence (whole entry): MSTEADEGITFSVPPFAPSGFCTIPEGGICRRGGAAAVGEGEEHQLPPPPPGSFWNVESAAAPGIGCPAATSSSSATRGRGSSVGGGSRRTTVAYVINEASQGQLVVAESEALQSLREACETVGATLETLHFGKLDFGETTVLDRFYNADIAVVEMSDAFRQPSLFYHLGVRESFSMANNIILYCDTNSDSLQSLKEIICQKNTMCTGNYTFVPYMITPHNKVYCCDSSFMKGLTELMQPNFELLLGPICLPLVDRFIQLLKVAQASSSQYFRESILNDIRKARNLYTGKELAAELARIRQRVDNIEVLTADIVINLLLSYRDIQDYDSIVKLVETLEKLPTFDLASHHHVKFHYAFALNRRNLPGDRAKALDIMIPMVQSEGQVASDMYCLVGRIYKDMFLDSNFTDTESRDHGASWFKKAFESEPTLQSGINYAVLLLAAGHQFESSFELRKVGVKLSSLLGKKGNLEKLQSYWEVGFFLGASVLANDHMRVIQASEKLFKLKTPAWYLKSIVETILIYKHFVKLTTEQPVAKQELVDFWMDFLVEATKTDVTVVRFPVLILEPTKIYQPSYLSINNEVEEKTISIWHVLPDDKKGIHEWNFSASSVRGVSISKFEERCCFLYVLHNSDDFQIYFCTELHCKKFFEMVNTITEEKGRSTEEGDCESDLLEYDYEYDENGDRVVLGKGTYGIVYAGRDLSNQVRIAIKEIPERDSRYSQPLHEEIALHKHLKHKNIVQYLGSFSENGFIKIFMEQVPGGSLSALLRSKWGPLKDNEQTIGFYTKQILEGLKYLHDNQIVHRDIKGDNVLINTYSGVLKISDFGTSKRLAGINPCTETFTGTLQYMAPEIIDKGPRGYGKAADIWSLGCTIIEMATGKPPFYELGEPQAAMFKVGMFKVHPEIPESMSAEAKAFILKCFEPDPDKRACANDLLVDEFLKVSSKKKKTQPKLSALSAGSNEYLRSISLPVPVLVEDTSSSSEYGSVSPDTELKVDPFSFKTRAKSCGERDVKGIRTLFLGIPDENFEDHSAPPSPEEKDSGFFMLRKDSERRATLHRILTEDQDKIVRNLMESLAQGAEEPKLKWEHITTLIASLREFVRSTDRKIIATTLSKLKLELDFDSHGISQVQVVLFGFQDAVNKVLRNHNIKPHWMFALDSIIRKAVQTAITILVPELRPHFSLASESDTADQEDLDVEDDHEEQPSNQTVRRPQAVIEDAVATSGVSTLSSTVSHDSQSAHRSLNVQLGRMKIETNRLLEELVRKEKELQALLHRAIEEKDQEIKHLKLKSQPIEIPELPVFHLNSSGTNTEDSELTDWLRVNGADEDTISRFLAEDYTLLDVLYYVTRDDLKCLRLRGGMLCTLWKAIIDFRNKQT

[10] = target: Platelet-derived growth factor receptor alpha (Homo sapiens) (UniProt P16234); assay: Inhibition of human recombinant PDGFRa at 500 nM in presence of ATP by radiometric assay relative to control
Chain of Platelet-derived growth factor receptor alpha (Homo sapiens) (P16234 whole entry): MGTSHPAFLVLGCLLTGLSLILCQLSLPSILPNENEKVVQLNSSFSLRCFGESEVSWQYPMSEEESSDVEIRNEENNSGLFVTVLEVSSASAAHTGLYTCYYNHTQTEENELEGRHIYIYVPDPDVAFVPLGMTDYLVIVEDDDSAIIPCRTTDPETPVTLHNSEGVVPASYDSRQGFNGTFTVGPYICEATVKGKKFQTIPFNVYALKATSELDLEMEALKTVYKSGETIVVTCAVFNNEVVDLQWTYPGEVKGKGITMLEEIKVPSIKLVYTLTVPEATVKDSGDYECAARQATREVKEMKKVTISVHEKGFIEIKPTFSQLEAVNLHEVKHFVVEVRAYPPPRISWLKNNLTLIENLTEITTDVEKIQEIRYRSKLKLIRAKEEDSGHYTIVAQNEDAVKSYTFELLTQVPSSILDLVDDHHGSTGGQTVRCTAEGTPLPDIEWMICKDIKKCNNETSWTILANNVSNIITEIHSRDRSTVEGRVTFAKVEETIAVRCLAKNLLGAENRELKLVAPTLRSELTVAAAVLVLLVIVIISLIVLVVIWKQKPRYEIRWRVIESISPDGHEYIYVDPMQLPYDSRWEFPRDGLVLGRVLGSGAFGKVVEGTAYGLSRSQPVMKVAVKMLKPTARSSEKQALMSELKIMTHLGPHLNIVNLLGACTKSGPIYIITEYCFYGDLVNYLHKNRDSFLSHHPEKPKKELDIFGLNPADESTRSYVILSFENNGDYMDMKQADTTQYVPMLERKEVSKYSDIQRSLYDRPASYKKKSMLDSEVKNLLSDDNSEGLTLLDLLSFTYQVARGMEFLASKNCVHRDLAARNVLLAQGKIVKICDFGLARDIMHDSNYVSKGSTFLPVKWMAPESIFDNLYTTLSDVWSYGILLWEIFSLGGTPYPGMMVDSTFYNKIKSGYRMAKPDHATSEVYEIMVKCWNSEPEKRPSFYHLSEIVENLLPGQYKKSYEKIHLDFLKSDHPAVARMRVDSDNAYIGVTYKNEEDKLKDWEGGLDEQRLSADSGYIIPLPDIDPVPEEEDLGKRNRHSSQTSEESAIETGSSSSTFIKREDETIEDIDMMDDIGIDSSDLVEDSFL

[11] = target: Ribosomal protein S6 kinase alpha-1 (Homo sapiens) (UniProt Q15418); assay: Inhibition of human recombinant RSK1 at 500 nM in presence of ATP by radiometric assay relative to control
Chain of Ribosomal protein S6 kinase alpha-1 (Homo sapiens) (Q15418 whole entry, the tested form may be a part): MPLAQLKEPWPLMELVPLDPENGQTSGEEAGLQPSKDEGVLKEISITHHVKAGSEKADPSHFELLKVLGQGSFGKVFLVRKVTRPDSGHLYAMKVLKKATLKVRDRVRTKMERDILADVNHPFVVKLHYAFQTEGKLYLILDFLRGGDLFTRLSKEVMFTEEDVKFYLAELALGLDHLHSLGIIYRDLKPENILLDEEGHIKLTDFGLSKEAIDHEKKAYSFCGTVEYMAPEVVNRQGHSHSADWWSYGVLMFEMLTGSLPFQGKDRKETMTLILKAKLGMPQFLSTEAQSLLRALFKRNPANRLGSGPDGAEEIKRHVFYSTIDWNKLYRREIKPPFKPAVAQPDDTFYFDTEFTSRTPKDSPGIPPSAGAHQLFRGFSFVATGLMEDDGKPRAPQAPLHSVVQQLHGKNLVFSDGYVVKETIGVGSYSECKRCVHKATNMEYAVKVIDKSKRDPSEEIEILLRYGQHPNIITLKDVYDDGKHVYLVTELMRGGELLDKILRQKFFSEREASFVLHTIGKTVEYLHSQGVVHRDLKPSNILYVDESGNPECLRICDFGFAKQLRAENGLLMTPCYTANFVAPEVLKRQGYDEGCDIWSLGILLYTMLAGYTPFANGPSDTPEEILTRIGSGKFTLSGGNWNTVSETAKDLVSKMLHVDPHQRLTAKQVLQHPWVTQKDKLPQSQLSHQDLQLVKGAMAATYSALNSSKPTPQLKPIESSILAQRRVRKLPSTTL

[12] = target: Epithelial discoidin domain-containing receptor 1 (Homo sapiens) (UniProt Q08345); assay: Inhibition of human recombinant DDR1 at 500 nM related to control ULK1
[13] = target: Epidermal growth factor receptor (Homo sapiens) (UniProt P00533); assay: Inhibition of human recombinant EGFR at 500 nM related to control ULK1

Chain of Protein kinase C eta type (Homo sapiens) (P24723 whole entry): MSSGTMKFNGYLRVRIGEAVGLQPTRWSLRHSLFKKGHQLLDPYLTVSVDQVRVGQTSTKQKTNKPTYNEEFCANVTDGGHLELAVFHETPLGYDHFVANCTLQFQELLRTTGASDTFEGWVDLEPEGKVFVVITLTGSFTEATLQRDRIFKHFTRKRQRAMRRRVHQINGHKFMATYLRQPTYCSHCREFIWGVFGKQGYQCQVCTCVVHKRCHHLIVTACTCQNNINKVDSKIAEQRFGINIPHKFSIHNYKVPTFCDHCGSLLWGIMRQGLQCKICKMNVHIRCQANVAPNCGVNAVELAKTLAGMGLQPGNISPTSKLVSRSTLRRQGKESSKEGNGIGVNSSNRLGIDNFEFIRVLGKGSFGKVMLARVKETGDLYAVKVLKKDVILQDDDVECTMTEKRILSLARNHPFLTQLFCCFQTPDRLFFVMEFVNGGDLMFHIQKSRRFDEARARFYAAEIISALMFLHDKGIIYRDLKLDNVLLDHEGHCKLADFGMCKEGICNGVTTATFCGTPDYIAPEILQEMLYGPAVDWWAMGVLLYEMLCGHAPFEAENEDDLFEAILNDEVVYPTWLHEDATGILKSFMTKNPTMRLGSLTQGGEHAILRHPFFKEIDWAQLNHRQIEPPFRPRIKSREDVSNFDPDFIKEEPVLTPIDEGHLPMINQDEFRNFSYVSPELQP

**Q.** What does the source list for `O=C(N[C@@H](C1CC1)C(F)(F)F)c1cc(-c2cnn3cc(-c4ccc(F)cc4)cnc23)cs1`?
**A.** inhibition [1]: 0%; inhibition [2]: 0%

**Q.** `CC(C)[C@H](NC(=O)c1cc(-c2cnn3cc(-c4ccc(OCCN5CCCCC5)cc4)cnc23)cs1)C(F)(F)F` was tested. Which fold change (FC) [3] did it give?
**A.** 0

**Q.** What about the fold change (FC) [4] of the same molecule?
**A.** 0

**Q.** What about the fold change (FC) [5] of the same molecule?
**A.** 0.08

**Q.** What about the fold change (FC) [6] of the same molecule?
**A.** 0.03

**Q.** What does the source list for `CNC(=O)c1ccccc1Oc1nc(Nc2cc(OC)c(OC)c(OC)c2)ncc1Br`?
**A.** inhibition [7]: 29%; inhibition [8]: 39%; inhibition [9]: 0%; inhibition [10]: 0%; inhibition [11]: 19%; fold change (FC) [12]: 0.64; fold change (FC) [13]: 0.04
